We go through one compound from ChEMBL document CHEMBL5727875, “Substituted bicycle heterocyclic derivatives useful as ROMK channel inhibitors” (2020).

The experiment has as its target T1, ATP-sensitive inward rectifier potassium channel 1 (Homo sapiens, UniProt P48048).
T1 sequence (P48048 whole entry): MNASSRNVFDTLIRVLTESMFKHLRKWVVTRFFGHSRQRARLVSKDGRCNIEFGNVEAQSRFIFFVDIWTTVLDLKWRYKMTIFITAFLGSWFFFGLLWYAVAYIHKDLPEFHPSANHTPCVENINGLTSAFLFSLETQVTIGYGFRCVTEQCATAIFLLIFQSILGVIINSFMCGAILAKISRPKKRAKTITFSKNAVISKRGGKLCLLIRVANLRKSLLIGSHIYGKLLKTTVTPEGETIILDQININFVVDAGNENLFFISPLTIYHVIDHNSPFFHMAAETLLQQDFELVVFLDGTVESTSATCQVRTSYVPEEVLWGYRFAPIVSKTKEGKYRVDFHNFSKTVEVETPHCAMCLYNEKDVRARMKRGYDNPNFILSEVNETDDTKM
Nature of the experiment: Electrophysiology Assay: The coverslip plated with cells was placed in the experiment chamber perfused with bath solution composed of (in mM): 135 NaCl, 5 KCl, 2 CaCl2), 1 MgCl2, 10 HEPES, 5 Glucose (pH 7.4). Patch pipettes with resistance between 2-5 Megaohms, when filled with a solution containing (in mM): 135 KCl, 1 EGTA, 1 MgCl2, 10 HEPES, 2 Na2ATP (pH 7.3), were used to form gigaseals. The ….

For orientation: IC50 means the midpoint of a concentration-inhibition curve. Low values mean inhibition by little substance, high ones a need for much substance. The compound `Cc1c([C@@H](O)CNCc2cnn(-c3ccc4oc(=O)n(C)c4c3)c2)ccc2c1COC2=O` had an IC50 of 0.012 µM.
